Source: US20160297828A1, “SPIROCYCLIC COMPOUNDS CONTAINING SPIRO[INDOLYL-3,1'-PYRROLO[3,4-C]PYRROLE] CORE AND SULPHUR-CONTAINING AMINO ACID RESIDUES” (priority 2013, published 2016)
Several values for one entry are separate records, joined by “and”; a condition that tells them apart may be missing. Identical values can stand only once. Marks after values point to notes of the source that are not given here.

Columns and labels:
[1] = test system: ischemic brain damage in rats; conditions: 60 mg/kg and 30 mg/kg, 3 and 7 hours after reperfusion; cited from earlier work
liver and pancrea cells = assay: Pro/antiapoptosis properties, electrophoresis of DNA fragments; format: in vivo; conditions: intact male Wistar rats; 50 mg/kg
Procedure: The assessment of pro/antiapoptotosis properties of substances was carried in intact male rats of Wistar line. The test substance were administered for 2 weeks by means of a probe in aqueous suspension containing Tween-80 at a dose of 50 mg/kg of body weight. The animals were euthanized by cervical vertebrae translocation 24 hours after the experiment. The identification of apoptosis of liver and pancrea cells was performed using electrophoretic method. […] Cell necrosis conditioned the “smeared” nature of DNA migration zone. The luminescence band of intact DNA was in the starting area.
The expression of apoptosis manifestations was assessed by registration of DNA fragments via electrophoresis.

[2] = test system: rat heart bioelectrical activity; assay: Acute asphyxia, duration of heart bioelectrical activity; format: in vivo, rats
Procedure: Acute asphyxia was modeled in rats anesthetized with propofol (60 mg/kg) intraperitoneally (ip) by complete clamping the trachea at electrocardiogram (EGC) registration. The antihypoxic effect was evaluated by duration of heart bioelectric activity (HBA). This model allows to estimate the heart sensitivity to hypoxia. An isoelectric ECG line for 1 minute considered as HBA termination, the pint of HBA termination corresponded to the last QRS complex on the ECG. The calculation of […] activity was performed by the above formula considering a point of last QRS complex registration as a lifetime.
(§1) The preliminary screening of test substances was performed on ANHHH model. All derivatives were administered in the same dose of 10 mg/kg […] (iv) 1 hour prior to pathological state modeling. […] The effectiveness of a leader compound was evaluated at doses 5; 10 and 15 mg/kg iv. Mexydol was chosen as a reference drug having antihypoxic action in combination with antioxidant and membrane protective activity, which is successfully used in patients with CVA and IM. Mexydol was administered intraperitoneally (ip) at a dose of 100 mg/kg according to similar scheme.

rats = assay: Acute normobaric hypoxic hypoxia with hypercapnia (ANHHH), life duration; format: in vivo; conditions: preventive administration; SI-86 and SI-108 10 mg/kg iv, mexydol 100 mg/kg ip
Procedure: The study of antihypoxic activity of 10 original derivatives of 3,2′-spiro-pyrrolo-2-oxindole was conducted on models of acute normobaric hypoxic hypoxia with hypercapnia (ANHHH) and acute asphyxia. ANHHH was modeled by means of rat arrangement into isolated pressure compartments (0.001 m^3). The observation conducted until the death of the animals. The antihypoxic activity was assessed by life duration (in minutes) in relation to the control taken as 100%, by the formula AA=tt/tk×100%, wherein AA—antihypoxic activity (%), tt—life duration of test animals, tc—life duration of control animals.
as §1

[3] = test system: rats with intracerebral hemorrhage; assay: Neurological deficit (C. P. McGrow stroke-index scale) in rats with intracerebral hemorrhage; format: in vivo; conditions: n = 15
Procedure: (§2) Neuroprotective effect of 3,2′-spiro-pyrrolo-2-oxindole derivative (SI-86 compound) was studied on IUD model of moderate severity modeled under propofol anesthesia (60 mg/kg intraperitoneally (ip)) by autoblood administration into the brain internal capsule (stereotactic coordinates of the projection: H=7.0 mm, L=3.0 mm, A=1.5 mm from bregma) ([…]) (Method for reproduction of intracerebral hemorrhage in rats/O. K. Yarosh, S. V. Kyrychenko, S. P. Halimonchyk [et al.]//Circulation and hemostasis.-2005.-No. 1.-P. 77-81). The chosen model allows to reproduce clinical pattern of […] and is adequate for clinical study of potential neuroprotective agents.
(§3) As comparators the following drugs were used: mexydol (“Mexydol” UC Pharmasoft, Russia), 100 mg/kg; citicoline (“Somazina” Ferrer International, SA, Spain), 250 mg/kg; aktovegin (“Aktovegin”, Nycomed, Austria), 16 mg/kg pyracetam (“Pyracetam” Darnitsa, Ukraine), 400 mg/kg. According to the latest clinical guidelines regarding the treatment of patients with CVA approved by the Ministry of Health of Ukraine (Order No. 602 dated 3 Aug. 2012), all these drugs are allowed to be included into schemes for intensive patients therapy with CVA as neuroprotective agents. They were used at recommended doses for preclinical studies (McGrow C. P. Experimental Cerebral Infarction Effects of Pentobarbital in Mongolian Gerbils/C. P. McGrow//Arch. Neurol.-1977.-Vol. 34, No. 6.-P. 334-336). Experimental therapy of acute cerebral ischemia with SI-86 compound and comparator started 1 hour after IUD once a day for 21 days. The SI-86 derivative was investigated in conventionally effective dose of 10 mg/kg […] (iv)-dose that according to the results of our previous study provides maximum antihypoxic activity of SI-86 compound. Reference drugs were injected intraperitoneally (ip). Rats of control pathology group were injected by autoblood and as therapy 0.9% NaCI solution was administered calculated for 2 ml/kg […].
Neurological deficit in animals with acute CVA respectively in acute (4th day) and recovery (21 st day) periods was measured on C. P. McGrow stroke-index scale. The state severity was determined by amount of relevant points: to 3 points-mild, 3 to 7 points-average, above 7 points-severe degree. Pareses, paralyses of limbs, tremors, circus movement, ptoses, lateral positions, ability of rats to be maintained at the core of 15 cm diameter, rotating at the rate of 3 rpm were noted. The animals were tested daily by displaying the amount of points:
one-sided semi-ptosis—0.5 points; one-sided ptosis—1 point; tremor—0.5 points; circus movements—0.5 points; pareses of limbs (for each limb)—1 point; paralyses of limbs (for each limb)—2 points; lateral position—3 points; disability to maintain on rotating rod during 4 minutes—3 points.

[4] = test system: rats with intracerebral hemorrhage; assay: Lethality of rats with intracerebral hemorrhage of average severity; format: in vivo
Procedure: The chosen model allows to reproduce clinical pattern of […] and is adequate for clinical study of potential neuroprotective agents.
As comparators the following drugs were used: mexydol (“Mexydol” UC Pharmasoft, Russia), 100 mg/kg; citicoline (“Somazina” Ferrer International, SA, Spain), 250 mg/kg; aktovegin (“Aktovegin”, Nycomed, Austria), 16 mg/kg pyracetam (“Pyracetam” Darnitsa, Ukraine), 400 mg/kg. According to the latest clinical guidelines regarding the treatment of patients with CVA approved by the Ministry of Health of Ukraine (Order No. 602 dated 3 Aug. 2012), all these drugs are allowed to be included into schemes for intensive patients therapy with CVA as neuroprotective agents. They were used at recommended doses for preclinical studies (McGrow C. P. Experimental Cerebral Infarction Effects of Pentobarbital in Mongolian Gerbils/C. P. McGrow//Arch. Neurol.-1977.-Vol. 34, No. 6.-P. 334-336). Experimental therapy of acute cerebral ischemia with SI-86 compound and comparator started 1 hour after IUD once a day for 21 days. […] Reference drugs were injected intraperitoneally (ip). Rats of control pathology group were injected by autoblood and as therapy 0.9% NaCI solution was administered calculated for 2 ml/kg iv.
Pseudo-operated rats were exposed to all interventions (anesthesia, craniotomy) excluding autoblood administration that leveled traumatic impact of experimental conditions.
(§4) Evaluation of the ability of animals to learn and memorize of aversive stimulus was examined in the test of conditioned response of passive avoidance (CRPA). The technique is based on innate rat instinct to limited shadowy space. The study in rats was conducted in two-compartment unit consisted of two sections—light and dark. An animal was arranged into light compartment, fixing latency time for entering into the dark compartment, wherein rat received current irritation and ran in the light compartment. CRPA retention was tested every other day under latency time change of rat entering into the dark compartment. Also the number of animals was noted not fully entered the dark chamber. Cerebroprotective efficiency criteria of studied compounds were also animal death term (days) and their mortality rate (in %).
Quantitative data were processed using statistical StatPlus 2009 processing. The statistical significance of differences was assessed by Fisher's angular transformation (lethality outcome), also parametric t Student criterion were used in case of normal distribution of variation series, nonparametric W White criterion—in its absence.

[5] = test system: rats with intracerebral hemorrhage; assay: Conditioned response of passive avoidance (CRPA) in rats with intracerebral hemorrhage; format: in vivo; conditions: 21st day, n = 15
Procedure: as §2, §3, §4

[6] = 12 h, SI-86 10 mg/kg iv, mexydol 100, citocoline 250, actovegin 16, pyracetam 400 mg/kg

## Cc1c(Cl)cccc1S(=O)(=O)Nc1nc(CC(=O)N2CCN(C)CC2)cs1.Cl [BVT-2733, 3-chloro-2-methyl-N-(4-(2-(4-methylpiperazin-1-yl)-2-oxoethyl)thiazol-2-yl)benzenesulfonamide hydrochloride]
[1]
  amount of ischemic brain damage: reduced the amount of ischemic brain damage

## CCSCC[C@@H]1N[C@@]2(C(=O)Nc3ccccc32)[C@@H]2C(=O)N(c3ccc(C)cc3)C(=O)[C@H]12 [SI-34, 5′-(4-Methylphenyl)-3′-[2-(ethylthio)ethyl]-3a′,6a′-dihydro-2′H-spiro[indole-3, 1′-pyrrolo[3,4-c]pyrrol]-2,4′,6′(1H,3H′,5H′)-trione]
Liver and pancrea cells
  level of apoptosis: closed to that of control group

## CCSCC[C@@H]1N[C@@]2(C(=O)N(Cc3ccc(Cl)cc3)c3ccccc32)[C@@H]2C(=O)N(c3ccc(C)cc3)C(=O)[C@H]12 [SI-108, 1-(4-Chloro-benzyl)-3′-[2-(ethylthio)ethyl]-5′-(4-methylphenyl)-3a′,6a′-dihydro-2′H-spiro[indole-3,1′-pyrrolo[3,4-c]pyrrol]-2,4′,6′(1H,3′H,5′H)-trione]
[2]; 10 mg/kg iv
  Antihypoxic activity: −18.4%
  Duration of heart bioelectrical activity: 9.5 ± 1.1 min
rats
  increase of life duration in rats in relation to control: 28.6%

## CCc1nc(C)ccc1O.O=C(O)CCC(=O)O [mexydol]
[3]; day 4, SI-86 10 mg/kg iv, mexydol 100, citocoline 250, actovegin 16, pyracetam 400 mg/kg ip
  neurological deficit, average point under C. P. McGrow scale: 4.30 ± 0.25°*^#•$ points
[3]; day 21, same doses
  neurological deficit, average point under C. P. McGrow scale: 3.8 points and 3.80 ± 0.21°*^#•$ points
[4]; [6]
  Lethality, %: 0/0%*^#
  Lethality, abs.: 0/0%*^#
[4]; 24 h, same doses
  Lethality, abs.: 0/0%*^#
[4]; 24 h observation, SI-86 10, mexydol 100, citicoline 250 mg/kg
  cerebroprotective protection: 100%
[4]; 48 h, same doses
  Lethality, %: 7.9%
  Lethality, abs.: 3
[4]; 72 h, same doses
  Lethality, %: 10.5%
  Lethality, abs.: 4
[4]; 96 h, same doses
  Lethality, %: 13.2%
  Lethality, abs.: 5
[4]; within 4 days of therapy, same doses
  reduction of mortality in rats at the end of the observation period relative to control: 17.2%
[5]; SI-86 10 mg/kg iv, mexydol 100, citocoline 250, actovegin 16, pyracetam 400 mg/kg ip
  Latent period for entrance into dark compartment, prior study: 11.30 ± 0.47°*^#$ s
[5]; same doses
  Latent period for entrance into dark compartment, 24 hours after study: 106.80 ± 2.77°*^#•$ s
[2]; 100 mg/kg ip
  Antihypoxic activity: +50.9%
  Duration of heart bioelectrical activity: 17.5 ± 0.5 min
rats
  increase of life duration in rats in relation to control: 80.2%
